Measurements: US7875621B2, “Substituted 2-alkyl quinazolinone derivatives as PARP inhibitors” (Janssen Pharmaceutica NV, priority 2004, dated 2011)
pIC50: −log10 of the molar value.

How the values were obtained:
PARP-1 enzyme [1] = biological target: T1, PARP-1 enzyme (Homo sapiens, UniProt P09874); assay: In vitro scintillation proximity assay (SPA) for PARP-1 inhibitory activity; assay type: biochemical; details: for IC50: [3H]-NAD+, nicked DNA, biotinylated histones, read-out: in vitro SPA assay PARP-1 pIC50 (converted)
T1 sequence (P09874 whole entry): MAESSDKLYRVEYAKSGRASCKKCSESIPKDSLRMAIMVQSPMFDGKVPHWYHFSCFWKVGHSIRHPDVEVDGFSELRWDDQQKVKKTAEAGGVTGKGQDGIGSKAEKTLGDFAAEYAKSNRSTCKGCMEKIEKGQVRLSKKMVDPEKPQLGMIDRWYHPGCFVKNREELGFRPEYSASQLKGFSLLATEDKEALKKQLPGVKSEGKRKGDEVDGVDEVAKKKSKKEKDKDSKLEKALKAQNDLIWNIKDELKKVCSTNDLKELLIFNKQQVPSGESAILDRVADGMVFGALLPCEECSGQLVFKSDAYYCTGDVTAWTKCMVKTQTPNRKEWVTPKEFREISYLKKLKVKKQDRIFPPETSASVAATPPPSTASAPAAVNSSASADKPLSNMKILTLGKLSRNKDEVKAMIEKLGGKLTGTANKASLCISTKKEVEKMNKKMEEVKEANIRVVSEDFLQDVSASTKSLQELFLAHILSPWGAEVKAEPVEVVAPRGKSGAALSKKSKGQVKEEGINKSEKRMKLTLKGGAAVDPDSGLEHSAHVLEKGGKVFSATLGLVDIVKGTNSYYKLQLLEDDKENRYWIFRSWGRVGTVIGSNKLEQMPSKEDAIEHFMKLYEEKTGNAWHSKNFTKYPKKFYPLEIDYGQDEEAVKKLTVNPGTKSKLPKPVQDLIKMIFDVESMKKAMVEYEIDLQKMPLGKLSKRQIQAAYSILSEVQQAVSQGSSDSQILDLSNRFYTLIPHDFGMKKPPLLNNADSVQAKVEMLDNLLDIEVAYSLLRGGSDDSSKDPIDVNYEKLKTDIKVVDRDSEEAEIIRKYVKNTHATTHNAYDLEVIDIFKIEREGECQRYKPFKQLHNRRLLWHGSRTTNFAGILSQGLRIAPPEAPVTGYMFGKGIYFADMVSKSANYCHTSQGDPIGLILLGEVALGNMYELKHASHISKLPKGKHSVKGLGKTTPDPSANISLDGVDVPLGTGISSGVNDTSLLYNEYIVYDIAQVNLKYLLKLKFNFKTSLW
Method: In Vitro Scintillation Proximity Assay (SPA) for PARP-1 Inhibitory Activity
Compounds of the present invention were tested in an in vitro assay based on SPA technology (proprietary to Amersham Pharmacia Biotech).
In principle, the assay relies upon the well established SPA technology for the detection of poly(ADP-ribosyl)ation of biotinylated target proteins, i.e histones. This ribosylation is induced using nicked DNA activated PARP-1 enzyme and [^3H]-nicotinamide adenine dinucleotide ([^3H]-NAD^+) as ADP-ribosyl donor.
As inducer of PARP-1 enzyme activity, nicked DNA was prepared. For this, 25 mg of DNA (supplier: Sigma) was dissolved in 25 ml DNAse buffer (10 mM Tris-HCl, pH 7.4; 0.5 mg/ml Bovine Serum Albumine (BSA); 5 mM MgCl2.6H2O and 1 mM KCl) to which 50 μl DNAse solution (1 mg/ml in 0.15 M NaCl) was added. After an incubation of 90 min. at 37° C., the reaction was terminated by adding 1.45 g NaCl, followed by a further incubation at 58° C. for 15 min. The reaction mixture was cooled on ice and dialysed at 4° C. for respectively 1.5 and 2 hours against 1.5 l of 0.2 M KCl, and twice against 1.5 l of 0.01 M KCl for 1.5 and 2 h respectively. The mixture was aliquoted and stored at −20° C. Histones (1 mg/ml, type II-A, supplier: Sigma) were biotinylated using the biotinylation kit of Amersham and stored aliquoted at −20° C. A stock solution of 100 mg/ml SPA poly(vinyl toluene) (PVT) beads (supplier: Amersham) was made in PBS. A stock solution of [^3H]-NAD^+ was made by adding 120 μl of [^3H]-NAD^+ (0.1 mCi/ml, supplier: NEN) to 6 ml incubation buffer (50 mM Tris/HCl, pH 8; 0.2 mM DTT; 4 mM MgCl2). A solution of 4 mM NAD^+ (supplier: Roche) was made in incubation buffer (from a 100 mM stock solution in water stored at −20° C.). The PARP-1 enzyme was produced using art known techniques, i.e. cloning and expression of the protein starting from human liver cDNA. Information concerning the used protein sequence of the PARP-1 enzyme including literature references can be found in the Swiss-Prot database under primary accession number P09874. Biotinylated histones and PVT-SPA beads were mixed and pre-incubated for 30 min. at room temperature. PARP-1 enzyme (concentration was lot dependent) was mixed with the nicked DNA and the mixture was pre-incubated for 30 min. at 4° C. Equal parts of this histones/PVT-SPA beads solution and PARP-1 enzyme/DNA solution were mixed and 75 μl of this mixture together with 1 μl of compound in DMSO and 25 μl of [^3H]-NAD^+ was added per well into a 96-well microtiterplate. The final concentrations in the incubation mixture were 2 μg/ml for the biotinylated histones, 2 mg/ml for the PVT-SPA beads, 2 μg/ml for the nicked DNA and between 5-10 μg/ml for the PARP-1 enzyme. After incubation of the mixture for 15 min. at room temperature, the reaction was terminated by adding 100 μl of 4 mM NAD in incubation buffer (final concentration 2 mM) and plates were mixed.
The beads were allowed to sediment for at least 15 min. and plates transferred to a TopCountNXT™ (Packard) for scintillation counting, values were expressed as counts per minute (cpm). For each experiment, controls (containing PARP-1 enzyme and DMSO without compound), a blank incubation (containing DMSO but no PARP-1 enzyme or compound) and samples (containing PARP-1 enzyme and compound dissolved in DMSO) were run in parallel. All compounds tested were dissolved and eventually further diluted in DMSO. […] In each test, the blank value was subtracted from both the control and the sample values. The control sample represented maximal PARP-1 enzyme activity. For each sample, the amount of cpm was expressed as a percentage of the mean cpm value of the controls. When appropriate, IC50-values (concentration of the drug, needed to reduce the PARP-1 enzyme activity to 50% of the control) were computed using linear interpolation between the experimental points just above and below the 50% level. […]

PARP-1 enzyme [2] = biological target: T1, PARP-1 enzyme; assay: In vitro filtration assay for PARP-1 inhibitory activity; assay type: biochemical; details: for IC50: [32P]-NAD, nicked DNA, histones, read-out: in vitro filter assay PARP-1 pIC50 (converted)
Method: In Vitro Filtration Assay for PARP-1 Inhibitory Activity
Compounds of the present invention were tested in an in vitro filtration assay assessing PARP-1 activity (triggered in the presence of nicked DNA) by means of its histone poly(ADP-ribosyl)ation activity using [^32P]-NAD as ADP-ribosyl donor. The radioactive ribosylated histones were precipitated by trichloroacetic acid (TCA) in 96-well filterplates and the incorporated [^32P] measured using a scintillation counter
A mixture of histones (stock solution: 5 mg/ml in H2O), NAD^+ (stock solution: 100 mM in H2O), and [^32P]-NAD^+ in incubation buffer (50 mM Tris/HCl, pH 8; 0.2 mM DTT; 4 mM MgCl2) was made. A mixture of the PARP-1 enzyme (5-10 μg/ml) and nicked DNA was also made. The nicked DNA was prepared as described in the in vitro SPA for PARP-1 inhibitory activity. […] of the PARP-1 enzyme/DNA mixture together with 1 μl of compound in DMSO and 25 μl of histones-NAD^+/[^32P]-NAD^+ mixture was added per well of a 96-well filterplate (0.45 μm, supplier Millipore). The final concentrations in the incubation mixture were 2 μg/ml for the histones, 0.1 mM for the NAD^+, […] (0.5 μC) for the [^32P]-NAD^+ and 2 μg/ml for the nicked DNA. Plates were incubated for 15 min. at room temperature and the reaction was terminated by the addition of 10 μl ice cold 100% TCA followed by the addition of 10 μl ice-cold BSA solution (1% in H2O). The protein fraction was allowed to precipitate for 10 min. at 4° C. and plates were vacuum filtered. The plates were subsequently washed with, for each well, 1 ml of 10% ice cold TCA, 1 ml of 5% ice cold TCA and 1 ml of 5% TCA at room temperature. Finally 100 μl of scintillation solution (Microscint 40, Packard) was added to each well and the plates were transferred to a TopCountNXT™ (supplier: Packard) for scintillation counting and values were expressed as counts per minute (cpm). For each experiment, controls (containing PARP-1 enzyme and DMSO without compound), a blank incubation (containing DMSO but no PARP-1 enzyme or compound) and samples (containing PARP-1 enzyme and compound dissolved in DMSO) were run in parallel. All compounds tested were dissolved and eventually further diluted in DMSO. In first instance, compounds were tested at a concentration of 10^−5M. […] In each test, the blank value was subtracted from both the control and the sample values. The control sample represented maximal PARP-1 enzyme activity. For each sample, the amount of cpm was expressed as a percentage of the mean cpm value of the controls. When appropriate, IC50-values (concentration of the drug, needed to reduce the PARP-1 enzyme activity to 50% of the control) were computed using linear interpolation between the experimental points just above and below the 50% level. Herein the effects of test compounds are expressed as pIC50 (the negative log value of the IC50-value). As a reference compound, 4-amino-1,8-naphthalimide was included to validate the filtration assay.

| SMILES | IC50 (PARP-1 enzyme [1]) | IC50 (PARP-1 enzyme [2]) | pIC50 (PARP-1 enzyme [1]) | pIC50 (PARP-1 enzyme [2]) |
| --- | --- | --- | --- | --- |
| O=C1NC(CCN2CCC3(CC2)C(=O)NCN3c2ccccc2)Nc2ccccc21 (stereo not drawn) [Compound 6] | 178 nM | 2140 nM | – | – |
| O=C(CC1CCN(CCc2nc3ccccc3c(=O)[nH]2)CC1)c1ccc(F)cc1 [Compound 3] | 560 nM | 4260 nM | – | – |
| O=C1NC(CCCN2CCC(n3c(=O)[nH]c4ccccc43)CC2)Nc2ccccc21 (stereo not drawn) [Compound 7] | 585 nM | 4160 nM | – | – |
| NC(=O)C1(c2ccccc2)CCN(CCCc2nc3ccccc3c(=O)[nH]2)CC1 [Compound 4] | 20 nM | 76.7 nM | – | – |
| NC(=O)C1(N2CCOCC2)CCN(CCCc2nc3ccccc3c(=O)[nH]2)CC1 [Compound 11] | 188 nM | 1140 nM | – | – |
| O=C1NCN(c2ccccc2)C12CCN(CCCc1nc3ccccc3c(=O)[nH]1)CC2 [Compound 2] | 385 nM | 4980 nM | – | – |
| O=C1NC(CCN2CCC(n3c(=O)[nH]c4ccccc43)CC2)Nc2ccccc21 (stereo not drawn) [Compound 13] | – | – | 6.50 | 5.33 |
| NC(=O)C1(c2ccccc2)CCN(CCCC2NC(=O)c3ccccc3N2)CC1 (stereo not drawn) [Compound 5] | 22.9 nM | 300 nM | – | – |

The next lines start with results.

| IC50 (PARP-1 enzyme [1]) | IC50 (PARP-1 enzyme [2]) | SMILES | pIC50 (PARP-1 enzyme [1]) | pIC50 (PARP-1 enzyme [2]) |
| --- | --- | --- | --- | --- |
| 236 nM | 1570 nM | O=C(NC1CCN(CCCC2NC(=O)c3ccccc3N2)CC1)c1ccccc1 (stereo not drawn) [Compound 8] | – | – |
| 58.6 nM | 546 nM | O=C(c1ccc(F)cc1)C1CCN(CCCc2nc3ccccc3c(=O)[nH]2)CC1 [Compound 14] | – | – |
| 611 nM | 5710 nM | O=C(c1ccc(F)cc1)C1CCN(CCc2nc3ccccc3c(=O)[nH]2)CC1 [Compound 9] | – | – |
| 117 nM | 673 nM | O=C(NC1CCN(CCCc2nc3ccccc3c(=O)[nH]2)CC1)c1ccccc1 [Compound 12] | – | – |
